In US12643867B2, “Compositions and uses thereof” (University of Virginia Patent Foundation, priority 2017, dated 2026):

Assays:
[1] = test system: recombinant DGKs and native kinases in HEK293T proteomes; experiment: Quantitative chemical proteomics, summary over kinases; format: binding; conditions: for number of kinase targets that show SR≥2: recombinant DGKs and native kinases
Method: (§1) Proteomes were diluted to 2 mg/ml in kinase buffer. The light and heavy proteomes (0.5 mg, 250 μL total reaction volume) were pre-treated with vehicle or compound, respectively (5 μL, DMSO (light) or 50× stock in DMSO (heavy)), mixed gently, and incubated at 25° C. for 30 min. […] After incubation, matched light and heavy proteomes were transferred and mixed in a 1:1 ratio in a two-dram vial containing 4:1:3 MeOH/CHCl3/H2O (2 mL MeOH, 500 AL CHCl3, 1.5 mL H2O) for extraction of proteins to remove excess probe, quickly vortexed, and centrifuged at 1,400×g for 3 min to pellet protein. Organic and aqueous layers were removed using a Pasteur pipette, and the protein pellet was transferred to a screw-top tube in 600 μL MeOH. A second extraction was performed by adding CHCl3 (150 μL) and H2O (600 μL) to each sample, vortexed, and centrifuged at 1,400×g for 3 min to pellet protein. Organic and aqueous layers were removed by pipetting. MeOH added to pellet (600 μL) and pellets were re-suspended by sonication (3×1 sec pulse, 20% amplitude) for a final extraction. Samples were then centrifuged at 17,000×g for 5 min to pellet protein and MeOH was removed by pipetting. The pellets were re-suspended in 10 M urea/25 mM ammonium bicarbonate ([…]), brought to a final volume of 1 mL with 25 mM ammonium bicarbonate, reduced with 10 mM DTT for 15 min at 65° C. allowed to cool, and then alkylated with 40 mM iodoacetamide for 30 min at 25° C. in the dark. To desalt the samples, each was transferred to a two-dram glass vial, and to the vial 4:1:2 MeOH/CHCl3/H2O (2 mL MeOH, 500 AL CHCl3, 1 mL H2O) was added. The vials were vortexed quickly, spun at 1.400×g for 3 min to pellet protein, and aqueous and organic layers were removed using a Pasteur pipette. The resulting protein pellet was transferred to a screw-top tube in 600 μL MeOH, and then CHCl3 (150 μL) and HO (600 μL) were added to extract protein a second time. The samples were vortexed quickly, centrifuged at 1,400×g to pellet protein, and the aqueous and organic layers were removed by pipetting. Resulting protein pellet was suspended in MeOH (600 μL) via sonication (3×1 sec pulse, 20% amplitude), centrifuged at 17,000×g for 5 min to pellet protein, and MeOH removed by pipetting. Protein pellets were then re-suspended in 25 mM ammonium bicarbonate (500 μL) and digested with 7.5 μg Trypsin/Lys-C(Promega, 15 μL, 0.5 μg/μL) for 3 h at 37° C. Avidin-agarose beads (Thermo Scientific Pierce, 100 AL aliquot per sample) were washed three times by adding 10 mL DPBS, centrifuged at 1,400×g for 1 min, and decanting. This wash step was repeated for a total of 3 times. Digested protein samples were mixed with washed avidin beads (100 μL) and brought to a volume of 5.5 mL with DPBS in a 15 mL conical and rotated for 1 h to enrich samples for the covalent desthiobiotin modification. The beads were washed with 25 mM ammonium bicarbonate (3× with 10 mL, centrifuge at 1,400×g for 3 min, decant) and then H2O (3× with 10 mL, centrifuge at 1,400×g for 3 min, decant). Washed beads were then transferred to a low-bind microfuge tube, centrifuged at 1,400×g for 3 min, allowed to rest for 1 min to settle beads, and then excess H2O was removed carefully using a gel-loading pipette tip. To elute peptides, 100 μL of elution buffer (50% acetonitrile, ACN; 0.1% formic acid) was added to each sample and incubated for 3 min. Beads were spun down at 1.400×g for 3 min, allowed to rest for 1 min to settle beads, and then 75 μL of peptide-containing supernatant was removed carefully using a gel-loading pipette tip and transferred to a new low bind centrifuge tube. This step was repeated two more times with 75 μL of elution buffer and all eluent were collected into the same centrifuge tube (˜225 μL total). Peptides were dried on a speed vacuum, resulting peptide samples acidified in 5% (v/v) formic acid, and stored at −80° C. until analysis.
(§2) The peptide samples were analyzed by liquid chromatography-mass spectrometry. […]

[2] = test system: AAPK1/AAPK2 (5′-AMP-activated protein kinase catalytic subunit alpha-1); experiment: SILAC LC-MS ATP acyl phosphate probe competition, native kinases in HEK293T; format: binding, Homo sapiens (Human); conditions: site Lys2; ATP 1 mM; Ketanserin, Ritanserin 100 μM; RF001 1 mM
Method: as §1, §2

[3] = test system: STK3/STK4 (Serine/threonine-protein kinase 3); experiment: as above; format: binding, Homo sapiens (Human); conditions: site Lys2; ATP 1 mM; Ketanserin, Ritanserin 100 μM; RF001 1 mM
Method: as §1, §2

[4] = test system: KS6A1/KS6A2/KS6A3 (Ribosomal protein S6 kinase alpha 1); experiment: as above; format: binding, Homo sapiens (Human); conditions: site Lys2; ATP 1 mM; Ketanserin, Ritanserin 100 μM; RF001 1 mM
Method: as §1, §2

[5] = test system: MP2K1/MP2K2 (Dual specificity mitogen-activated protein kinase kinase 1); experiment: as above; format: binding, Homo sapiens (Human); conditions: site Lys2; ATP 1 mM; Ketanserin, Ritanserin 100 μM; RF001 1 mM
Method: as §1, §2

[6] = test system: MARK3/MARK4 (MAP/microtubule affinity-regulating kinase 3); experiment: as above; format: binding, Homo sapiens (Human); conditions: site Lys1; ATP 1 mM; Ketanserin, Ritanserin 100 μM; RF001 1 mM
Method: as §1, §2

[7] = test system: M4K4/MINK1/TNIK (Mitogen-activated protein kinase kinase kinase kinase 4); experiment: as above; format: binding, Homo sapiens (Human); conditions: site Lys2; ATP 1 mM; Ketanserin, Ritanserin 100 μM; RF001 1 mM
Method: as §1, §2

[8] = test system: KS6A4/KS6A5 (Ribosomal protein S6 kinase alpha 4); experiment: as above; format: binding, Homo sapiens (Human); conditions: site ATP Loop; ATP 1 mM; Ketanserin, Ritanserin 100 μM; RF001 1 mM
Method: as §1, §2

Structure (SMILES) | competition at probe-binding sites ([1]; 100 μM) | SILAC ratio, AAPK1/AAPK2 probe-modified peptide [2] | SILAC ratio, STK3/STK4 probe-modified peptide [3] | SILAC ratio, KS6A1/KS6A2/KS6A3 probe-modified peptide [4] | SILAC ratio, MP2K1/MP2K2 probe-modified peptide [5] | SILAC ratio, MARK3/MARK4 probe-modified peptide [6] | SILAC ratio, M4K4/MINK1/TNIK probe-modified peptide [7] | SILAC ratio, KS6A4/KS6A5 probe-modified peptide [8] | SILAC ratio at all binding sites detected, other DGK isoforms ([1]; 100 μM) | number of kinase targets that show SR≥2 [1] | average SILAC ratio at all detected probe-modified sites of other DGK subtypes ([1]; 1 mM) | kinase targets with potent activity (SR≥5) ([1]; all detectable kinases)
O=C(c1ccc(F)cc1)C1CCN(CCn2c(=O)[nH]c3ccccc3c2=O)CC1 [Ketanserin] | negligible competition at all probe-binding sites | 1.4 | 1.2 | 1.4 | 1.3 | 1.4 | 1.3 | 1.3 | – | – | – | –
Cc1nc2sccn2c(=O)c1CCN1CCC(=C(c2ccc(F)cc2)c2ccc(F)cc2)CC1 [Ritanserin] | – | 2.4 | 1.6 | 2.0 | 1.9 | 2.0 | 1.8 | 2.2 | < 2 | 25 | – | –
Fc1ccc(C(=C2CCNCC2)c2ccc(F)cc2)cc1 [RF001, 4-(Bis(4-fluorophenyl)methylene) piperidine] | – | 1.1 | 0.9 | 1.2 | 0.9 | 1.1 | 1.1 | 1.1 | – | 3 | ~1 | a single kinase target
